PubChem BioAssay (NCI)
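These data come from cells grown in 96-well plates and exposed to compound for 48 hours at five concentrations. TGI is the concentration that stops growth completely.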

Experiments:
Experiment in all cases: NCI tumour cell line growth inhibition, 48 h
[1] = system: U251 CNS
[2] = system: MDA-MB-231 breast
[3] = system: SF-539 CNS
[4] = system: KM12 colon
[5] = system: HCT-15 colon
[6] = system: NCI-H226 lung
[7] = system: 786-0 renal
[8] = system: SW-620 colon
[9] = system: HOP-62 NSCLC
[10] = system: PC-3 prostate
[11] = system: HS 578T breast
[12] = system: BT-549 breast
[13] = system: HOP-92 NSCLC
[14] = system: NCI/ADR-RES ovarian
[15] = system: IGROV1 ovarian
[16] = system: SNB-75 CNS
[17] = system: HCT-116 colon
[18] = system: A549 NSCLC
[19] = system: SN12C renal
[20] = system: TK-10 renal
[21] = system: EKVX NSCLC
[22] = system: NCI-H460 lung
[23] = system: ACHN renal
[24] = system: RXF 393 renal
[25] = system: M14 melanoma
[26] = system: UO-31 renal
[27] = system: UACC-62 melanoma
[28] = system: COLO 205 colon
[29] = system: MDA-MB-435
[30] = system: HL-60(TB) leukemia
[31] = system: T-47D breast
[32] = system: OVCAR-8 ovarian
[33] = system: CAKI-1 renal
[34] = system: DU-145 prostate
[35] = system: HT29 colon
[36] = system: MALME-3M melanoma
[37] = system: NCI-H23 lung
[38] = system: SF-268 CNS
[39] = system: SNB-19 CNS
[40] = system: SK-MEL-5 melanoma
[41] = system: MDA-N
[42] = system: UACC-257 melanoma
[43] = system: MCF7 breast
[44] = system: SK-MEL-2 melanoma
[45] = system: SK-MEL-28 melanoma
[46] = system: LOX IMVI melanoma
[47] = system: OVCAR-5 ovarian
[48] = system: A498 renal
[49] = system: OVCAR-3 ovarian
[50] = system: NCI-H522 lung
[51] = system: K-562 leukemia
[52] = system: MOLT-4 leukemia
[53] = system: CCRF-CEM leukemia
[54] = system: RPMI-8226 leukemia
[55] = system: SF-295 CNS
[56] = system: SR leukemia
[57] = system: HCC-2998 colon

For Cc1ccc2nc(-c3nccn3C)cc(C(=O)NC(C)CN(C)C)c2c1 (stereo unspecified), the TGI [1] was over 100 µM, the TGI [2] was over 100 µM and the TGI [3] was over 100 µM. The TGI [4] was over 100 µM, the TGI [5] was over 100 µM and the TGI [6] was over 100 µM. For the same compound, the TGI [7] was over 100 µM, the TGI [8] was over 100 µM and the TGI [9] was over 100 µM. The TGI [10] was over 100 µM, the TGI [11] was over 100 µM and the TGI [12] was over 100 µM. It also gave a TGI [13] of over 100 µM, a TGI [14] of over 100 µM and a TGI [15] of over 100 µM. The TGI [16] was over 100 µM, the TGI [17] was over 100 µM and the TGI [18] was over 100 µM. For the same compound, the TGI [19] was over 100 µM, the TGI [20] was over 100 µM and the TGI [21] was over 100 µM. The TGI [22] was over 100 µM, the TGI [23] was over 100 µM and the TGI [24] was over 100 µM. The TGI [25] was over 100 µM, the TGI [26] was over 100 µM and the TGI [27] was over 100 µM. It also gave a TGI [28] of over 100 µM, a TGI [29] of over 100 µM and a TGI [30] of over 100 µM. For the same compound, the TGI [31] was over 100 µM, the TGI [32] was over 100 µM and the TGI [33] was over 100 µM. For the same compound, the TGI [34] was over 100 µM, the TGI [35] was over 100 µM and the TGI [36] was over 100 µM. For the same compound, the TGI [37] was over 100 µM, the TGI [38] was over 100 µM and the TGI [39] was over 100 µM. For the same compound, the TGI [40] was over 100 µM, the TGI [41] was over 100 µM and the TGI [42] was over 100 µM. For the same compound, the TGI [43] was over 100 µM, the TGI [44] was over 100 µM and the TGI [45] was over 100 µM. It also gave a TGI [46] of over 100 µM, a TGI [47] of over 100 µM and a TGI [48] of over 100 µM.
Compound CC(=O)Oc1ccc(C)c2c1[C@H]1CC[C@]3(C)[C@@H](OC(C)=O)CC[C@H]3[C@@H]1CC2 has a TGI [1] of 29.1 µM, a TGI [2] of 33.9 µM and a TGI [3] of 38 µM. The TGI [4] was 35.1 µM, the TGI [49] was 33.1 µM and the TGI [5] was 35.2 µM. For the same compound, the TGI [6] was 54.8 µM, the TGI [50] was 34.1 µM and the TGI [7] was 39.4 µM. For the same compound, the TGI [8] was 34.4 µM, the TGI [9] was 32 µM and the TGI [11] was 47 µM. The TGI [12] was 32 µM, the TGI [13] was 30.9 µM and the TGI [14] was 40.4 µM. It also gave a TGI [15] of 36.4 µM, a TGI [16] of 54.5 µM and a TGI [51] of 68.3 µM. It also gave a TGI [52] of 46.5 µM, a TGI [17] of 31.2 µM and a TGI [18] of 50.8 µM. The TGI [19] was 39 µM, the TGI [20] was 67.9 µM and the TGI [21] was 30.9 µM. It also gave a TGI [22] of 37.4 µM, a TGI [23] of 29.8 µM and a TGI [24] of 35.4 µM. The TGI [53] was 55.2 µM, the TGI [25] was 32.2 µM and the TGI [26] was over 100 µM. The TGI [27] was 34.5 µM, the TGI [54] was 49.4 µM and the TGI [29] was 32.9 µM. The TGI [30] was 51.5 µM, the TGI [31] was 40.6 µM and the TGI [32] was 58.3 µM. For the same compound, the TGI [55] was 48.5 µM, the TGI [34] was 66.6 µM and the TGI [35] was 33.5 µM. It also gave a TGI [36] of 30.4 µM, a TGI [37] of 34.7 µM and a TGI [38] of 80.3 µM. It also gave a TGI [56] of over 100 µM, a TGI [39] of 32.6 µM and a TGI [40] of 34.9 µM. The TGI [41] was 36.8 µM, the TGI [42] was 35.6 µM and the TGI [43] was 38.9 µM. For the same compound, the TGI [45] was 33.2 µM, the TGI [57] was 32.8 µM and the TGI [46] was 31.4 µM. The TGI [47] was over 100 µM and the TGI [48] was 31.4 µM.
